Results published in patent US20240349725A1, “FORMULATION COMPRISING AN ACID FUNCTION ACTIVE INGREDIENT, ESTER FUNCTION ACTIVE INGREDIENT AND SALT AND/OR CHEMICALLY LABILE ACTIVE INGREDIENT, THE USE THEREOF AND METHOD OF PRODUCTION” (Iharabrás S.A. Indústrias Químicas, priority 2021, published 2024).

Assay: In-house compatibility observations of the actives with acids / 2,4-D amine salt solution
Type: physicochemical
Source text: Secondary amine salt formulations diethanolamine, diisopropanolamine) of 2,4-D and other herbicides containing a carboxylic acid function (2,4,5-T, ticlopyr, dicamba, picloram, aminopyralid, others) are extremely hydrophilic, being normally conveyed as a concentrated aqueous solution of high pH to avoid crystallization of the salt/free acid. […] As discussed, these active ingredients have physical-chemical features that make it difficult for them to be used together in the same formulation. In addition to this is the easy decomposition through base-catalyzed hydrolysis, of active ingredients containing the ester function, such as lactofen, if they were soluble or emulsified in an alkaline solution, as is the case of the aqueous solution of amine salts of 2,4-D. This effect was observed when lactofen was dissolved in a naphthenic organic solvent and then emulsified in a solution of 2,4-D dimethylamine salt. Shortly afterwards, lactofen had been decomposed even under mild temperature conditions, which made it impossible to provide this mixture under these conditions as a commercial product. It is also mentioned that, although the degradation kinetics may be different, compounds containing an ester group, such as lactofen, can also undergo solvolysis (hydrolysis if the solvent is water) in the presence of acids, which makes it impossible for lactofen to be transported with 2,4-D without neutralization of the latter by an alkaline compound. Bispyribac sodium is also a compound that easily degrades under different conditions. […] Bispyribac sodium is also known to only remain stable at pH levels close to neutral or slightly alkaline (7 to 9) and at temperatures around 25° C. and in the dark, with an acceleration of degradation under conditions other than these. These features of lactofen and bispyribac sodium make it difficult for one to develop formulations with other active ingredients, which may justify the absence of commercial products with these associated active ingredients.

SMILES	degradation in the presence of acids (even in the absence of water, observed internally)	degradation in the presence of unneutralized 2,4-D (high acidity of 2,4-D)	decomposition when emulsified in a solution of 2,4-D dimethylamine salt (dissolved in naphthenic organic solvent, emulsified in 2,4-D dimethylamine salt solution, mild temperature)
COc1cc(OC)nc(Oc2cccc(Oc3nc(OC)cc(OC)n3)c2C(=O)O)n1 [Bispyribac sodium, bispyribac sodium]	degrades easily	fully degraded	–
CCOC(=O)C(C)OC(=O)c1cc(Oc2ccc(C(F)(F)F)cc2Cl)ccc1[N+](=O)[O-] (stereo not drawn) [Lactofen, lactofen]	–	–	decomposed
